From patent US20130317034A1, “COMBINATION THERAPY FOR TREATING DIABETES” (Japan Tobacco Inc., priority 2010, published 2013)

Legend:
[1] = Food consumption, body weight gain and body weight in rats fed a high fat diet; format: in vivo; conditions: Mean ± S.E. (n = 8)
Description: Forty-four eight week old male rats (Charles River Laboratories Japan, Inc.) were used for the experiment. Body weights and food weight were measured six days before and on the day before the dosing of the compound of formula (I). Body weight gain and food consumption were calculated for this period. Animals were fasted for 24 hours the day before dosing with the compound of formula (I). Using the body weights on the day of the dosing, body weight gain and food consumption as indicators, 32 rats were selected from those closest to the mean values. The rats were assigned to four groups (control, compound of formula (I) only, DPP-IV inhibitor only, and combination of compound of formula (I) and DPP-IV inhibitor) with eight animals in each group. One-way analysis of variance was performed using SAS Preclinical Package Version 5.0 and SAS System Version 8.2 (SAS Institute Japan Co., Ltd.) to verify that no significant intergroup differences were present after group allocation.
(§1) After the rats were fasted for 24 hours, either the compound of formula (I) (30 mg/kg) or vehicle (0.5% MC) was dosed orally. The rats were immediately fed with a high-fat diet for six hours and fasted overnight. Glucose tolerance tests (GTTs) were performed 30 minutes after dosing either sitagliptin or vehicle (0.5% MC). Dosing for each group is described in Tables 1 and 2 below.
Food consumption was calculated according to the following formula: food consumption (g)=food weight before feeding (g)−food weight after feeding (g). Body weight gain was calculated according the following formula: body weight gain (g)=body weight after feeding (g)-body weight before feeding (g). There were no significant differences between the groups in food consumption and body weight gain for six hours after dosing, and in body weight at the start of GTT (Table 3).

rats fed a high fat diet [2] = assay: Glucose tolerance test (GTT): plasma glucose levels; format: in vivo
Description: (§2) This example studied the combined effects of the compound of formula (I) and sitagliptin, i.e., a DPP-IV inhibitor, on plasma GLP-1 levels and glucose tolerance as evaluated in rats fed a high fat diet.
as §1
(§3) At the start of the GTT, blood was collected to measure plasma GLP-1. The plasma glucose and insulin concentrations were measured before and after loading with the glucose solution. For the preparation of the glucose solution, glucose was diluted in saline at a concentration of 0.4 g/mL.
(§4) For the GTT, the rats were fasted overnight after six hours feeding. On the following day, 600-700 μL of blood were collected from the tail vein into tubes containing a DPP-IV inhibitor, aprotinin, and EDTA. Thereafter, a glucose solution at a dose of 1 g/2.5 mL/kg was loaded intraperitoneally. At 10, 30, 60, and 120 minutes after loading the glucose solution, 200-300 μL of blood were collected from the tail vein into tubes containing heparin. The blood was centrifuged at 10,000×g and 4° C. for five minutes to obtain the plasma.

rats fed a high fat diet [3] = assay: Glucose tolerance test (GTT): plasma insulin levels; format: in vivo
Description: as §2, §1, §3, §4

plasma GLP-1 = assay: Plasma GLP-1 level at the start of the GTT (GLP-1 (Active) ELISA); format: in vivo, rats
Description: as §2, §1, §3
For the GTT, the rats were fasted overnight after six hours feeding. On the following day, 600-700 μL of blood were collected from the tail vein into tubes containing a DPP-IV inhibitor, aprotinin, and EDTA. Thereafter, a glucose solution at a dose of 1 g/2.5 mL/kg was loaded intraperitoneally. […]
After 200 μL of plasma sampled before the glucose loading were added with […] of ethanol, the solution was thoroughly mixed. […] The GLP-1 concentration was measured by the ELISA method using a GLP-1 (Active) ELISA kit.

[4] = six hours high-fat feeding after dosing, compound of formula (I) 30 mg/kg PO
[5] = 0 min after glucose loading (1 g/kg ip), compound of formula (I) 30 mg/kg PO, sitagliptin 10 mg/kg PO

N[C@@H](CC(=O)N1CCn2c(nnc2C(F)(F)F)C1)Cc1cc(F)c(F)cc1F [sitagliptin]
Body Weight ([1]; before GTT): 352.7 ± 6.9 g | Body Weight Gain [1, 4]: 15.5 ± 1.2 g | Food Consumption [1, 4]: 15.2 ± 1.3 g | Plasma Glucose Level (rats fed a high fat diet [2]; [5]): 149 ± 6 mg/dL | Plasma Glucose Level (rats fed a high fat diet [2]; 10 min after glucose loading): 264 ± 16 mg/dL | Plasma Glucose Level (rats fed a high fat diet [2]; 30 min after glucose loading): 255 ± 12 mg/dL | Plasma Glucose Level (rats fed a high fat diet [2]; 60 min after glucose loading): 185 ± 8 mg/dL | Plasma Glucose Level (rats fed a high fat diet [2]; 120 min after glucose loading): 157 ± 5 mg/dL | Plasma glucose levels in the GTT, in words (rats fed a high fat diet [2]; at 60 minutes after glucose loading, versus control group): significantly decreased | AUC of Plasma Glucose Level (rats fed a high fat diet [2]; during the GTT, 0-120 min): 24095 ± 981 mg·min/dL | AUC for the glucose levels during the GTT, in words (rats fed a high fat diet [2]; versus control group): lower than that for the control group, although there were no statistically significant differences | Plasma Insulin Level (rats fed a high fat diet [3]; [5]): 2.350 ± 0.439 ng/mL | Plasma Insulin Level (rats fed a high fat diet [3]; 10 min after glucose loading): 4.968 ± 0.562 ng/mL | Plasma Insulin Level (rats fed a high fat diet [3]; 30 min after glucose loading): 4.595 ± 0.675 ng/mL | Plasma Insulin Level (rats fed a high fat diet [3]; 60 min after glucose loading): 3.253 ± 0.749 ng/mL | Plasma Insulin Level (rats fed a high fat diet [3]; 120 min after glucose loading): 3.046 ± 0.435 ng/mL | AUC of Plasma Insulin Level (rats fed a high fat diet [3]; during the GTT, 0-120 min): 438.898 ± 72.779 ng·min/mL | Plasma insulin levels during the GTT, in words (rats fed a high fat diet [3]; versus control group): higher | Plasma GLP-1 Level (plasma GLP-1; at the start of the GTT, compound of formula (I) 30 mg/kg PO day before, sitagliptin 10 mg/kg PO 30 min before GTT, Mean ± S.E. (n = 8)): 1.800 ± 0.270 pmol/L | Plasma GLP-1 levels prior to glucose loading, in words (plasma GLP-1; versus control group): significantly higher
